Reference: US11974988B2, “Neuroprotective compositions and methods of using the same” (The Board of Supervisors of Louisiana State Univer …, priority 2018, dated 2024)
In brackets after ≈: the same amount, converted by molar mass. Several values for one entry are separate records, joined by “and”; a condition that tells them apart may be missing. Equal entries are not always repeated. Entries after “also recorded” stand apart in the source; their conditions may differ. Where two headings read alike, the source gives them in different places.

What was measured:
[1] = system: activity-regulated Gln/MeAIB transport (SNAT activity) in hippocampal neurons; details: cited from earlier work; for block of 14C-MeAIB transport activity: 2 mM; for Km: read-out: Km of the activity-regulated Gln/MeAIB transport system
[2] = system: activity-regulated Gln/MeAIB transport (SNAT activity) in hippocampal neurons; assay: Activity-regulated (spontaneous, 4-AP- or K+-stimulated) [14C]-MeAIB transport in primary hippocampal neurons; type: cell-based, rat; parameters: block of transport activity: dose or concentration left out as unconfirmed; details: for relative affinity for PMA-induced K+-activity-stimulated Gln/MeAIB transport activity: PMA 10 min before KCl 60 mM; for inhibition of spontaneous activity-regulated 14C-MeAIB transport, in words: screens, 10 μM, GABA 2 mM; for inhibition at 10 µM / IC50: Rattus norvegicus, Hippocampal neuron; for inhibition at 10 µM: read-out: block / inhibition of transport activity; for Active (annotation beside the compound name: active vs inactive derivatives): Table 1: SKA-41, and active and inactive derivatives; for potency to inhibit activity-regulated MeAIB transport relative to a comparator, in words: spontaneous and 4-AP stimulated transport
SNAT1 or SNAT2 = details: cited from earlier work
KCa2 and NaV channels = details: cited from earlier work
[3] = Max. solubility (Table 1); type: physicochemical
[4] = system: hippocampal neurons of KA-treated rats; assay: KA-induced status epilepticus model, hippocampal neurodegeneration (fluoro-jade B, NeuN); type: in vivo, rat; details: for neuroprotection against Glu-induced excitotoxicity in the KA model of TLE: rat, in vivo
Description: (§1) In Aim 3, we treat male and female rats with the ‘best’ SKA-41 derivatives before and after injection of kainic acid (KA). The KA-induced status epilepticus (SE) model is a well-validated model of temporal lobe epilepsy (TLE), the major form of human epilepsy. The model allows studying the different stages between SE and the development of TLE including SE, the acute and latent stages of epileptogenesis and chronic epilepsy. The excitotoxin KA causes excessive Glu release in the hippocampus and selective destruction of inhibitory SOM interneurons in the hilus region of the dentate gyrus (DG) and loss of pyramidal neurons in the CA3 (esp), and also CA1 regions. We scaled up synthesis of SKA-41, 219, and SKA-378. The identity of the compounds was confirmed by ^1H- and ^13C-NMR and high-resolution mass spectrometry. Compound purity is determined by HPLC and no compounds with less then 98% purity were used. […] Rats were processed for immunohistochemistry 3 days after KA administration. As expected, we find that KA treatment induces significant neural damage (green cells) in the CA3 pyramidal neuron subfield and in neurons in the hilus (FIG. 20 Panel A), which are SOM containing GABAergic interneurons (not shown). Fluoro jade B is a high affinity fluorescent marker used for the localization of neuronal degeneration. […] In studies, we have also administered SKA-378 (30 mg/kg) one hr after the onset of stage IV seizures (SE), followed by another injection at 4 hr post SE and then once each day for 3 days. We find that SKA-378 is also neuroprotective under these conditions.
as §1, with “with” for “with the ‘best’”, “(esp)” for “(esp),”, “were” for “was”, “We” for “As expected, we”, “23” for “20”, “Fluoro-jade” for “Fluoro jade”

NaV1.2 = target: T1, NaV1.2 (Mus musculus, UniProt B1AWN6); assay: NaV currents recorded by whole-cell patch clamp from N1E-115 neuroblastoma cells expressing NaV1.2; type: cell-based
T1 construct: N1E-115 cells that constitutively express NaV1.2; endogenous in cells; host or cells: N1E-115 mouse neuroblastoma cells
Description: Cells were held at −80 mV and current elicited by a 0 mV depolarization stepped from a −120 mV conditioning pulse at 0.1 Hz.
Cells transiently (or stably) expressing voltage-gated Na^+ or K^+ channels will be subjected to electrophysiological recording using the whole-cell patch-clamp technique. We will use HEK-293 cell lines stably expressing hNaV1.1, hNaV1.5, hNaV1/7, hNaV1.4, and hKV2.1. […] All cells will be voltage clamped to a holding potential of −90 mV, otherwise specified if held at −120 mV in the case of NaV1.2 use-dependence recording. Na^+ currents will be elicited by 30-ms pulse to 0 mV from −90 mV applied every 10 s. KV2.1 currents will be elicited by 200-ms voltage steps from −90 to 40 mV applied every 10 s.

plasma protein = assay: Plasma protein binding; type: in vitro ADME, rat
Description: Synthesis of SKA-41, SKA-190, SKA-219 and SKA-220 and will validate plasma protein binding with rat plasma using equilibrium dialysis so that we can validate protein binding.

[5] = system: delayed-rectifier K+ channels and two-pore K+ channels; details: cited from earlier work
[6] = system: small-conductance Ca2+-activated K+ channels; details: read-out: EC50, activation of small-conductance Ca2+-activated K+ channels; cited from earlier work
protein Kinase C = details: read-out: IC50, inhibition of protein Kinase C; cited from earlier work
NaV channels = details: read-out: IC50s, inhibition of NaV channels; cited from earlier work
[7] = system: N- and P/Q-type Ca2+ channels; details: read-out: IC50, block of N- and P/Q-type Ca2+ channels; cited from earlier work
[8] = 4-AP-stimulated (depolarization) [14C]-MeAIB uptake, DIV16, n in brackets, read-out: SNAT Activity IC50, 4-AP
[9] = spontaneous [14C]-MeAIB uptake, DIV 19, n in brackets, read-out: SNAT Activity IC50, Spont

T1 sequence (B1AWN6 whole entry): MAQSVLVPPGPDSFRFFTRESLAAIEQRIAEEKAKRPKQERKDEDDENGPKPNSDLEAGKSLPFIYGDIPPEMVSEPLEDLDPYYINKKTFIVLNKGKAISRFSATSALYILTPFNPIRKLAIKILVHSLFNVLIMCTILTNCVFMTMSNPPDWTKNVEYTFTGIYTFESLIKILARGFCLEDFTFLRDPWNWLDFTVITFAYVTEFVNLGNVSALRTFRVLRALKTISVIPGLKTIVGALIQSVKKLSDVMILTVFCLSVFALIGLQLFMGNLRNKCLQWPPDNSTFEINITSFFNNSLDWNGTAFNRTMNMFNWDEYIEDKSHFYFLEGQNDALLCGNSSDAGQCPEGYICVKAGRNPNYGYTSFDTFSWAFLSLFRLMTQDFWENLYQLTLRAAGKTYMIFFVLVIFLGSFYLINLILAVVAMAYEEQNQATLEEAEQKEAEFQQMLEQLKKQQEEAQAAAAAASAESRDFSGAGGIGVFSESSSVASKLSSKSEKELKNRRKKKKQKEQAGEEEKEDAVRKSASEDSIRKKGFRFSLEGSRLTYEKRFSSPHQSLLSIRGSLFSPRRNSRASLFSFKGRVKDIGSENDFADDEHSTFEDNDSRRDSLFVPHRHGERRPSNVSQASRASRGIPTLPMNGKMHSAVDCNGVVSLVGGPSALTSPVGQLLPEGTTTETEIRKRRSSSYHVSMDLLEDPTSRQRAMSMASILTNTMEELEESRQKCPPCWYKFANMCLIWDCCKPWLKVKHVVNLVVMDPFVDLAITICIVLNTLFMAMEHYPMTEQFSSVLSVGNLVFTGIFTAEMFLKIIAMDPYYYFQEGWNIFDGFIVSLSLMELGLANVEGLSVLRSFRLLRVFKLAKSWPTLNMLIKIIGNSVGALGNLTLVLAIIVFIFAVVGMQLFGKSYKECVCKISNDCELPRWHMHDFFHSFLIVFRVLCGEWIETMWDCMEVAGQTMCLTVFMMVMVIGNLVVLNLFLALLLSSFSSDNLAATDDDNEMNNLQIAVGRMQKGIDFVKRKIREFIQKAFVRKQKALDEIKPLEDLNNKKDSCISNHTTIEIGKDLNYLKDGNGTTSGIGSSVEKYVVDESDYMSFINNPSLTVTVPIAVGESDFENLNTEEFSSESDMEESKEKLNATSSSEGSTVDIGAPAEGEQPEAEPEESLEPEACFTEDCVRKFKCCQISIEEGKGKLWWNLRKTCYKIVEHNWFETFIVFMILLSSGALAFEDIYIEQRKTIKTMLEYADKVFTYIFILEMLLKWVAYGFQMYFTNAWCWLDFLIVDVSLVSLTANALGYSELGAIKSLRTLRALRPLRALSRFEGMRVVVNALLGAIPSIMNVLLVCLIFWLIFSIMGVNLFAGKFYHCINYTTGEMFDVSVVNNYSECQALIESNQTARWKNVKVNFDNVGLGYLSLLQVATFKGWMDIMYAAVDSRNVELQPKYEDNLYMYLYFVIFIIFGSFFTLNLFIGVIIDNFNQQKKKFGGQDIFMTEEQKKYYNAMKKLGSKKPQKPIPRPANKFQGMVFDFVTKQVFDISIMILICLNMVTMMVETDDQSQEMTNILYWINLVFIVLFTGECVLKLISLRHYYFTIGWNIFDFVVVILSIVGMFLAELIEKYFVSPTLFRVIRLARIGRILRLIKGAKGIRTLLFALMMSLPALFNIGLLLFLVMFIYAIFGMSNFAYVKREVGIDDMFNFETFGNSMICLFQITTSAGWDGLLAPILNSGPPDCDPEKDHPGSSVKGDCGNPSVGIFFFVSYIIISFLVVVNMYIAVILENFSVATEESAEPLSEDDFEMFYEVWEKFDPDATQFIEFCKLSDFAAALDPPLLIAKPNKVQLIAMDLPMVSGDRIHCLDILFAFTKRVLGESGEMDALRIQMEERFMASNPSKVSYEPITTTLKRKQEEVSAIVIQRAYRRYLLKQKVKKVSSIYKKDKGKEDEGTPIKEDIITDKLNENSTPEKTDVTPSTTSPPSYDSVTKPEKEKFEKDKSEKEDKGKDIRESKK

NC(=O)CC[C@H](N)C(=O)O [Gln, glutamine]
block of 14C-MeAIB transport activity [1]: ~90% | Km [1]: 30 µM | relative affinity for PMA-induced K+-activity-stimulated Gln/MeAIB transport activity [2]: ~97 µM

CNC(C)(C)C(=O)O [MeAIB, α-methylaminoisobutyric acid, reference compound]
Km [1]: 30 µM | relative affinity for PMA-induced K+-activity-stimulated Gln/MeAIB transport activity [2]: ~35 µM | affinity of SNAT1 or SNAT2 for MeAIB (SNAT1 or SNAT2): > 0.5 mM

Nc1nc2ccc(Cc3ccccc3)cc2s1 [SKA-7]
established ion-channel activity (KCa2 and NaV channels): NaV blockers | inhibition of spontaneous activity-regulated 14C-MeAIB transport, in words [2]: active

Nc1nc2ccc(OC(F)(F)Cl)cc2s1 [SKA-11, reference compound]
established ion-channel activity (KCa2 and NaV channels): mixed NaV blockers and KCa activators | inhibition of spontaneous activity-regulated 14C-MeAIB transport, in words [2]: active

Nc1nc2ccc(SC(F)(F)F)cc2s1 [SKA-19, 2-amino-6-trifluoromethylthio-benzothiazole, reference compound]
established ion-channel activity (KCa2 and NaV channels): mixed NaV blockers and KCa activators | inhibition at 10 µM [2]: ~90% | inhibition of spontaneous activity-regulated 14C-MeAIB transport, in words [2]: active

Nc1nc2ccc3ccccc3c2s1 [SKA-45]
established ion-channel activity (KCa2 and NaV channels): KCa2 activators | inhibition of spontaneous activity-regulated 14C-MeAIB transport, in words [2]: active

Cc1ccc2cccc(-c3csc(N)n3)c2c1 [SKA-193, 4-(7-Methylnaphthalen-1-yl)thiazol-2-amine]
solubility [3]: 50 µM (≈ 12 µg/mL) | block of transport activity [2]: 90% | inhibition at 10 µM [2]: 90% | Active (annotation beside the compound name: active vs inactive derivatives) [2]: SKA-193 Active | inhibition of spontaneous activity-regulated 14C-MeAIB transport, in words [2]: blocked spontaneous transport activity; also recorded: inhibited spontaneous transport activity | melting point: 154 to 156 °C

Cc1ccc2cc(-c3csc(N)n3)ccc2c1 [SKA-198, 4-(6-Methylnaphthalen-2-yl)thiazol-2-amine]
solubility [3]: 50 µM (≈ 12 µg/mL) | inhibition at 10 µM [2]: > 50% | inhibition of spontaneous activity-regulated 14C-MeAIB transport, in words [2]: inhibited spontaneous transport activity | melting point: 178 to 179 °C

Nc1nc(-c2cccc3ccccc23)c(Br)s1 [SKA-219, 5-Bromo-4-(1-naphthalenyl)thiazol-2-amine]
solubility [3]: 25 µM (≈ 7.63 µg/mL) | neuroprotection against Glu-induced excitotoxicity in the KA model of TLE [4]: neuroprotective | block of transport activity [2]: 90% | inhibition at 10 µM [2]: 90% | IC50 ([2]; hippocampal neurons in vitro, 14C-MeAIB 20 μM, read-out: IC50 to inhibit activity-regulated Gln/MeAIB transport): ~2 µM | Active (annotation beside the compound name: active vs inactive derivatives) [2]: SKA-219 Active | inhibition of spontaneous activity-regulated 14C-MeAIB transport, in words [2]: blocked spontaneous transport activity; also recorded: inhibited spontaneous transport activity | potency to inhibit activity-regulated MeAIB transport relative to a comparator, in words [2]: as potent as riluzole | less potent to block NaV channels than activity-regulated Gln/MeAIB transport (NaV1.2): > 10 × | selectivity to inhibit activity-regulated Gln/MeAIB transport over NaV channels (NaV1.2): > 10 fold and 10 fold and ~15 fold | IC50 (NaV1.2; N1E-115 cells, n=12, read-out: IC50 to inhibit NaV1.2): 30 µM | EC50 (NaV1.2; N1E-115 cells, read-out: EC50 concentration to inhibit NaV1.2): ~30 µM

Nc1nc(-c2ccc3ccccc3c2)c(Br)s1 [SKA-220, 5-Bromo-4-(naphthalen-2-yl)thiazol-2-amine]
solubility [3]: 25 µM (≈ 7.63 µg/mL) | inhibition at 10 µM [2]: 90% | Active (annotation beside the compound name: active vs inactive derivatives) [2]: SKA-220 Active | inhibition of spontaneous activity-regulated 14C-MeAIB transport, in words [2]: blocked spontaneous transport activity; also recorded: inhibited spontaneous transport activity | potency to inhibit activity-regulated MeAIB transport relative to a comparator, in words [2]: as potent as riluzole | melting point: 140 to 141 °C

Nc1nc(-c2cccc3ccccc23)c(Cl)s1 [SKA-378, 5-Chloro-4-(naphthalen-1-yl)thiazol-2-amine]
neuronal degeneration by fluoro-jade B staining in hippocampus ([4]; 30 mg/kg 30 min before and 30 min after first KA (5 mg/kg/hr x 2 hr i.p.), 3 days after KA): prevents fluoro-jade B staining in all regions of the hippocampus; also recorded: Neurodegeneration is not observed | neuroprotection when given after onset of SE ([4]; 30 mg/kg 1 hr after onset of stage IV seizures, at 4 hr post SE, then once daily for 3 days): neuroprotective | NeuN staining: disorganization and neuron loss in CA3 and hilus ([4]; 30 mg/kg pretreatment, 3 days after KA): prevents the disorganization and cell loss | neuroprotection against Glu-induced excitotoxicity in the KA model of TLE [4]: neuroprotective | potency to inhibit activity-regulated MeAIB transport relative to a comparator, in words [2]: as active as SKA-219 and SKA-220, respectively; also recorded: most potent

C[C@H](N)C(=O)O [alanine]
block of 14C-MeAIB transport activity [1]: ~90%

Nc1nc(-c2cccc3ccccc23)c(Br)s1 [drawing 65]
fold difference 4-AP IC50 over Spont IC50 [2]: 2.8 x | IC50 [2, 8]: 5.1 µM | IC50 [2, 9]: 1.8 µM | IC50 (NaV1.2; read-out: Selectivity IC50 Nav1.2): 30 µM | Plasma Protein (plasma protein): > 98%

Nc1nc(-c2ccc3ccccc3c2)c(Br)s1 [drawing 66]
fold difference 4-AP IC50 over Spont IC50 [2]: 1.5 x | IC50 [2, 8]: 6.8 µM | IC50 [2, 9]: 4.4 µM | Plasma Protein (plasma protein): > 98%

NCC(=O)O [glycine]
block of 14C-MeAIB transport activity [1]: ~90%

N[C@@H](Cc1c[nH]cn1)C(=O)O [histidine]
block of 14C-MeAIB transport activity [1]: ~90%

O=C(O)[C@@H]1CCCN1 [proline]
block of 14C-MeAIB transport activity [1]: ~90%

Nc1nc2ccc(OC(F)(F)F)cc2s1 [riluzole]
established ion-channel activity (KCa2 and NaV channels): mixed NaV blockers and KCa activators | IC50 [5]: > 30 µM | concentration inhibiting delayed-rectifier K+ channels and activating two-pore K+ channels [5]: 30 to 100 µM | EC50 [6]: 10 to 200 µM and 10 to 20 µM and > 20 µM | IC50 (protein Kinase C): > 30 µM | IC50 (NaV channels): 1 to 500 µM and 1 to 50 µM | IC50 [7]: > 40 µM

CNCC(=O)O [sarcosine]
block of 14C-MeAIB transport activity [1]: ~90% | relative affinity for PMA-induced K+-activity-stimulated Gln/MeAIB transport activity [2]: ~8 µM
